# Source: patent US9089540B2, “Method for determination of sensitivity to anti-cancer agent” (KEIO UNIVERSITY, priority 2008, dated 2015)
# Key:
# [1] = Clinical blood exposure to SN-38 after irinotecan administration, calculated from interview form parameters; type: in vivo, human
# Protocol: Based on the pharmacokinetic parameters of SN-38 (Campto™, interview form), the area under the curve of SN-38 blood concentration (AUCSN-38) obtained after the first irinotecan administration of the colon cancer therapy regimen (180 mg/m^2/day) was calculated to be 1,449 nmol·h/L. The concentration of SN38 required to obtain the same exposure amount through 72-hour exposure employed in this Example was calculated to be 20 nM. Therefore, a cut off value was set to 20 nM for the IC50 value of each cancer cell line with respect to SN-38 and the cancer cell lines were classified into two groups of a high sensitivity group and a low sensitivity group. As a result, there was a significant increase in the peak intensity of the peak detected at m/z of 11,000 to 11,100 in the low sensitivity group (FIG. 6).
# [2] = system: 5 kinds of human colorectal cancer cell lines (COLO320, HCT-15, HT-29, LS174T, HCT116); test: Evaluation of SN-38 sensitivity, MTS assay (cell survival rate); type: cell-based; settings: 72 hours exposure, range over 5 cell lines, read-out: IC50 value of each cell line (SN-38 sensitivity)
# Protocol: After exposure of each cell line to 0 to 1,000 μmol/Loxaliplatin for 48 hours, a cell survival rate was evaluated with MTS assay (CellTiter96™ AQueous One Solution Cell Proliferation Assay, Promega). Then, IC50 value (a concentration at which the number of cells is suppressed to 50% with respect to that in an oxaliplatin-untreated well) was calculated and used as an oxaliplatin sensitivity in each cell line. The evaluation of the sensitivity was performed four times with cells having different passage numbers and the average value and the standard deviation value thereof were calculated.
# As cells, 5 kinds of human colorectal cancer cell lines (COLO320, HCT-15, HT-29, LS174T, HCT116 (HCT116 was obtained from ECACC)), and as a drug, an irinotecan active metabolite (SN-38, obtained from Yakult Honsha, Co., Ltd.) were used. The cell survival rate after exposure to 0 to 1,000 nmol/L SN-38 for 72 hours was evaluated by MTS assay in the same manner as in Example 1 and the IC50 value was calculated. […] For the analysis, ProteinChip™ Reader (Model PCS4000 Personal Edition, Bio-Rad) was used, and the analysis was performed under the following conditions: mass range, 0 to 70,000 daltons; focus mass, 11,000 daltons; energy, 3,000 nJ; and 265 shots in total per sample. […]
# [3] = human, in vivo, 100 mg/m2
# [4] = roughly corresponding to the cut off value; cited from earlier work
smiles,measurement,setting,value
CCc1c2c(nc3ccc(O)cc13)-c1cc3c(c(=O)n1C2)COC(=O)[C@]3(O)CC [SN-38],concentration of SN38 required to obtain the same exposure amount through 72-hour exposure,[1]; AUC equivalent over 72-hour exposure,0.02 µM
same,area under the curve of SN-38 blood concentration (AUCSN-38),"[1]; after first irinotecan administration of colon cancer regimen, 180 mg/m^2/day","1,449 nmol·h/L"
same,IC50,[2],0.00339 to 0.0337 µM
"N.N.[Cl][Pt][Cl] [cisplatin, cis-Diammineplatinum(II) dichrolide]",Cmax,[3],9.5 to 11 µM
"O=C1[O][Pt]2([NH][C@@H]3CCCC[C@H]3[NH]2)[O]C1=O [oxaliplatin, (SP-4-2)-[(1R,2R)-cyclohexane-1,2-diamine-κN,κN′][ethanedioato (2-)-κO^1,κO^2]platinum]",peak blood concentration at the time of clinical use,[4],~5.0 µM
